Assay results taken from patent publication US4684629A, “3'-deamino-3'-hydroxy-4'-deoxy-4'-amino doxorubicin and related daunorubicin” (priority 1985, dated 1987).
≈ marks a conversion by molar mass, not a printed value. Where two headings read alike, the source gives them in different places.

Key:
[1] = system: HeLa cells; assay: colony inhibition test against HeLa cells (treatment for 24 hrs); type: cell-based; details: Homo sapiens
[2] = system: P388 leukemia; assay: antitumor activity against P388 ascitic leukemia in CDF-1 mice, treatment ip on day 1; type: in vivo; details: for T/C % (median survival time: % over untreated controls) / Toxic deaths: ip on day 1; for Toxic deaths: autoptic findings on dead mice; for antitumor activity compared with the parent drugs: P 388 ascitic leukemia, CDF-1 mice, in words
Experimental: The primary screening "in vivo" was carried out in CDF-1 mice bearing P 388 ascitic leukemia (10^6 cells/mouse).
Antitumor activity against P388 leukemia, treatment ip on day 1
^a Median survival time: % over untreated controls
^b Evaluated on the basis of autoptic findings on dead mice.

[3] = system: advanced mammary carcinoma; assay: activity and toxicity against advanced mammary carcinoma in C3H/He mice, iv once a week for four weeks; type: in vivo; details: for Toxic deaths: autoptic evaluation; for Tumor growth: evaluated once week after last treatment; for activity at the optimal dose: 6 mg/kg of Doxorubicin, 5.3 mg/kg of IB, in words
Experimental: (§1) The compound IB has been tested in comparison with Doxorubicin against advanced mammary carcinoma spontaneously arising in C3H/He mice. The compounds were administered iv once a week for four weeks.
Activity, toxicity and cardiotoxicity of IB against advanced mammary
(§2) ^1 Experiment was performed in C3H/He mice inoculated s.c. with 20
(§3) × 10^6 mammary carcinoma cells.
(§4) ^2 Treatment iv started when tumor was palpable (once week for four
^3 Evaluated once week after last treatment.
^5 Evaluated on the basis of autoptic

[4] = system: miocardial tissue (atrium, ventricle); assay: cardiotoxicity in C3H/He mice bearing mammary carcinoma, semithin sections of miocardial tissue (light microscopy); type: in vivo; details: for animals with cardiac lesions (atrial and ventricular level) / severity of the cardiac lesions: mouse, in vivo
Experimental: as §1, §2, §3, §4
^6 Evaluated on semithin section of miocardial tissue (by light

[5] = 6 mg/kg iv once a week for four weeks
[6] = 7.5 mg/kg iv once a week for four weeks
[7] = 2.7 mg/kg iv once a week for four weeks
[8] = 3.8 mg/kg iv once a week for four weeks
[9] = 5.3 mg/kg iv once a week for four weeks

COc1cccc2c1C(=O)c1c(O)c3c(c(O)c1C2=O)C[C@@](O)(C(C)=O)C[C@@H]3O[C@H]1C[C@H](N)[C@H](O)[C@H](C)O1 [Daunorubicin]
IC50 ([1]; HeLa, 24 h, read-out: ID50): 9 ng/mL (≈ 0.0171 µM)
T/C % (median survival time: % over untreated controls) ([2]; dose 2.9 (ng/kg [sic])): 170%
Toxic deaths ([2]; dose 2.9 (ng/kg [sic])): 0/10
T/C % (median survival time: % over untreated controls) ([2]; dose 4.4 (ng/kg [sic])): 170%
Toxic deaths ([2]; dose 4.4 (ng/kg [sic])): 0/10
T/C % (median survival time: % over untreated controls) ([2]; dose 6.6 (ng/kg [sic])): 170%
Toxic deaths ([2]; dose 6.6 (ng/kg [sic])): 3/10

COc1cccc2c1C(=O)c1c(O)c3c(c(O)c1C2=O)C[C@@](O)(C(=O)CO)C[C@@H]3O[C@H]1C[C@H](N)[C@H](O)[C@H](C)O1 [Doxorubicin]
T/C % [3, 5]: 138%
Toxic deaths [3, 5]: 0/5
Tumor growth [3, 5]: 65
activity at the optimal dose [3]: the same for both compounds
T/C % [3, 6]: 125%
Toxic deaths [3, 6]: 5/5
Tumor growth [3, 6]: 84
Cardiotoxicity, Atrium, affected mice (%) [4, 5]: 100%
Cardiotoxicity, Atrium, grade [4, 5]: 1.6
Cardiotoxicity, Ventricle, affected mice (%) [4, 5]: 100%
Cardiotoxicity, Ventricle, grade [4, 5]: 1.2
Cardiotoxicity, Atrium, affected mice (%) [4, 6]: 100%
Cardiotoxicity, Atrium, grade [4, 6]: 3.2
Cardiotoxicity, Ventricle, affected mice (%) [4, 6]: 100%
Cardiotoxicity, Ventricle, grade [4, 6]: 3.6
animals with cardiac lesions (atrial and ventricular level) [4]: all the animals
severity of the cardiac lesions [4]: high
T/C % (median survival time: % over untreated controls) ([2]; dose 10.0 (ng/kg [sic])): 225%
Toxic deaths ([2]; dose 10.0 (ng/kg [sic])): 0/10

COc1cccc2c1C(=O)c1c(O)c3c(c(O)c1C2=O)CC(O)(C(C)=O)CC3OC1CC(O)C(N)C(C)O1 (centres unmarked) [IA, 3'-deamino-3'-hydroxy-4'-deoxy-4'-aminodaunorubicin]
IC50 ([1]; HeLa cells, treatment for 24 hrs, read-out: ID50 (the source's name)): 7 ng/mL (≈ 0.0133 µM)
antitumor activity compared with the parent drugs [2]: more active than the parent drugs
T/C % (median survival time: % over untreated controls) ([2]; dose 10.0 (ng/kg [sic])): 165%
Toxic deaths ([2]; dose 10.0 (ng/kg [sic])): 0/10
T/C % (median survival time: % over untreated controls) ([2]; dose 15.0 (ng/kg [sic])): 180%
Toxic deaths ([2]; dose 15.0 (ng/kg [sic])): 0/10
T/C % (median survival time: % over untreated controls) ([2]; dose 22.5 (ng/kg [sic])): 200%
Toxic deaths ([2]; dose 22.5 (ng/kg [sic])): 0/10

COc1cccc2c1C(=O)c1c(O)c3c(c(O)c1C2=O)CC(O)(C(=O)CO)CC3OC1CC(O)C(N)C(C)O1 (centres unmarked) [IB, 3'-deamino-3'-hydroxy-4'-deoxy-4'-aminodoxorubicin]
T/C % [3, 7]: 98%
Toxic deaths [3, 7]: 0/5
Tumor growth [3, 7]: 32
T/C % [3, 8]: 129%
Toxic deaths [3, 8]: 0/5
Tumor growth [3, 8]: 34
T/C % [3, 9]: 148%
Toxic deaths [3, 9]: 1/5
Tumor growth [3, 9]: 59
activity at the optimal dose [3]: the same for both compounds
Cardiotoxicity, Atrium, affected mice (%) [4, 7]: 25%
Cardiotoxicity, Atrium, grade [4, 7]: 0.1
Cardiotoxicity, Ventricle, affected mice (%) [4, 7]: 0%
Cardiotoxicity, Ventricle, grade [4, 7]: 0
Cardiotoxicity, Atrium, affected mice (%) [4, 8]: 20%
Cardiotoxicity, Atrium, grade [4, 8]: 0.1
Cardiotoxicity, Ventricle, affected mice (%) [4, 8]: 60%
Cardiotoxicity, Ventricle, grade [4, 8]: 0.3
Cardiotoxicity, Atrium, affected mice (%) [4, 9]: 40%
Cardiotoxicity, Atrium, grade [4, 9]: 0.2
Cardiotoxicity, Ventricle, affected mice (%) [4, 9]: 80%
Cardiotoxicity, Ventricle, grade [4, 9]: 0.4
cardiotoxicity in comparison with Doxorubicin ([4]; in words): drastically reduced in comparison with Doxorubicin
animals with cardiac lesions (atrial and ventricular level) [4]: lower percent of affected mice
severity of the cardiac lesions [4]: lower severity
antitumor activity compared with the parent drugs [2]: more active than the parent drugs
T/C % (median survival time: % over untreated controls) ([2]; dose 4.4 (ng/kg [sic])): 220%
Toxic deaths ([2]; dose 4.4 (ng/kg [sic])): 0/10
T/C % (median survival time: % over untreated controls) ([2]; dose 6.6 (ng/kg [sic])): 230%
Toxic deaths ([2]; dose 6.6 (ng/kg [sic])): 0/10
T/C % (median survival time: % over untreated controls) ([2]; dose 10.0 (ng/kg [sic])): 310%
Toxic deaths ([2]; dose 10.0 (ng/kg [sic])): 0/10
T/C % (median survival time: % over untreated controls) ([2]; dose 15.0 (ng/kg [sic])): 215%
Toxic deaths ([2]; dose 15.0 (ng/kg [sic])): 3/10
